≈ marks a conversion by molar mass, not a printed value. Where a name gives a salt, the structure may show the parent alone.
Experiments:
[1] = system: Escherichia coli ATCC 35218; assay: MIC, broth microdilution, normal MH medium; type: cell-based; conditions: Escherichia coli, ATCC35218, quality control strain, read-out: Antibacterial activity MIC, Escherichia coli ATCC 35218
Description: (§1) Strain for quality control: Escherichia coli ATCC35218, purchased from National Center of Clinical Laboratory.
(§2) Medium: MH liquid medium (OXOID).
(§3) Culture condition: cells were incubated at 35-37° C. for 16-18 h.
(§4) The broth microdilution method recommended by Clinical and Laboratory Standards Institute (CLSI), Performance Standards for Antimicrobial Susceptibility Testing; Twenty-Third Informational Supplement, M02-All, M07-A9 and M11-A8, 2013 was used to determine the MIC value of each test sample against each test strain in the normal MH medium and iron-deficient MH medium.
(§5) After diluting each sample to different concentrations with normal MH medium, 100 μl of each test sample solution at different concentrations was separately aspirated onto a 96-well sterile polystyrene plate. Drug solutions were added to the 1st to 10th well with the final concentrations of 16, 8, 4, 2, 1, 0.5, 0.25, 0.125, 0.06, and 0.03 mg/L in each well, respectively. The 11th well, as a blank control, was not added with drugs and bacteria. The 12th well, as a bacterial growth control, was added with bacteria but no drug.
(§6) The test bacterial liquid was adjusted to a bacterial suspension of 0.5 Mcfarland standard with physiological saline, and diluted with MH broth at 1:100, and then added to the drug solution so that a final concentration of the bacterial liquid was approximately 10^4 CFU/ml; 100 μl of the bacterial liquid was further added to each of the above wells (the total volume in each well is 200 μl), which was sealed and placed in a 35-37° C. incubator for 18-20 h for testing the result. The OD600 value was measured by a microplate reader, Minimal Inhibitory Concentration (MIC) of a drug is the lowest concentration of the drug which prevents growth of bacteria in the wells. 1.2.2 MIC in iron-deficient MH medium

[2] = system: Escherichia coli (4 strains); assay: MIC, broth microdilution, normal MH medium; type: cell-based; conditions: for MIC: Escherichia coli, clinical isolates (ESBLs), read-out: Antibacterial activity MIC, Escherichia coli (4 strains)
Description: (§7) Supplier of the strains: all of the above strains were provided by Sichuan Primed Shines Bio-tech Co., Ltd. A single colony was isolated by streaking on agar plates for each strain prior to the experiment, and the cells freshly cultured at 37° C. overnight were appropriately diluted for the experiment.
as §2, §3, §4, §5, §6

[3] = system: Pseudomonas aeruginosa (4 strains); assay: MIC, broth microdilution, normal MH medium; type: cell-based; conditions: Pseudomonas aeruginosa, multidrug-resistant clinical isolates (integrator I, IMP4), read-out: Antibacterial activity MIC, Pseudomonas aeruginosa (4 strains)
Description: as §7, §2, §3, §4, §5, §6

[4] = system: Acinetobacter baumannii (4 strains); assay: MIC, broth microdilution, normal MH medium; type: cell-based; conditions: Acinetobacter baumannii, read-out: Antibacterial activity MIC, Acinetobacter baumarmii (4 strains)
Description: as §7, §2, §3, §4, §5, §6

[5] = system: multidrug-resistant Klebsiella pneumoniae KR15-4 (KPC2); assay: In vivo efficacy in mice systemically infected with multidrug-resistant Klebsiella pneumoniae KR15-4 (KPC2); conditions: Kunming mice, intraperitoneal infection, drug s.c. 0.5 h and 4 h after infection, deaths over 7 days, Bliss method
Description: 4.1 Test strains: clinically isolated pathogenic multidrug-resistant Klebsiella pneumoniae KR15-4 (KPC2), provided by Sichuan Primed Shines Bio-tech Co., Ltd.
4.2 Test animals: Kunming mice, age: 4 to 5 weeks, weight: 18 to 22 g, half male, half female, SPF grade.
4.3 Test methods: Mice were randomly divided into several groups, 5 mice for each group, half male and half female, and 4 doses for each test drug: 12.5, 25, 50 and 100 mg/kg. The mice were intraperitoneally injected with 0.5 mL of 3.0×10^6 CFU/mL bacterial suspension for each mouse, and subcutaneously injected with the drug at the designed dose 0.5 h and 4 h after infection. The subcutaneous injection volume was 0.2 ml/20 g mouse weight; the number of deaths in mice was observed and recorded for 7 consecutive days. According to the number of deaths in mice, the half effective dose ED50 was calculated according to the Bliss method using the DAS 1.0 software, edited by Sun Ruiyuan et al.

[6] = system: Klebsiella pneumoniae (4 strains); assay: MIC, broth microdilution, normal MH medium; type: cell-based; conditions: for MIC: Klebsiella pneumoniae, multi-drug resistant clinical isolates (KPC2), read-out: Antibacterial activity MIC, Klebsiella pneumoniae (4 strains)
Description: as §7, §2, §3, §4, §5
The OD600 value was measured by a microplate reader, Minimal Inhibitory Concentration (MIC) of a drug is the lowest concentration of the drug which prevents growth of bacteria in the wells. 1.2.2 MIC in iron-deficient MH medium

[7] = system: Escherichia coli (4 strains); assay: MIC, broth microdilution, iron-deficient MH medium; type: cell-based; conditions: Escherichia coli; iron-deficient MH medium (16 mg/L 2,2'-bipyridine); clinical isolates (ESBLs); read-out: Antibacterial activity MIC, Escherichia coli (4 strains)
Description: as §7, §2, §3, §4
(§8) BPL was added to the normal MH medium to obtain a final concentration of 16 mg/L; According to the method in Section 1.2.1, 100 μl of each test sample solution at different concentrations was aspirated to the 1st to 10th well in a 96-well sterile polystyrene plate to obtain the final drug concentrations of 16, 8, 4, 2, 1, 0.5, 0.25, 0.125, 0.06, and 0.03 mg/L, respectively. Then, 100 μl of the test bacterial liquid was added to each well (200 μl per well), and the final concentration of the bacterial liquid was approximately 10^4 CFU/ml. After sealing, it was placed in a 35-37° C. incubator for 18-20 hours for testing the result. The OD600 value was measured by a microplate reader, Minimal Inhibitory Concentration (MIC) of a drug is the lowest concentration of the drug which prevents growth of bacteria in the wells.

[8] = system: Pseudomonas aeruginosa (4 strains); assay: MIC, broth microdilution, iron-deficient MH medium; type: cell-based; conditions: Pseudomonas aeruginosa; iron-deficient MH medium (16 mg/L 2,2'-bipyridine); multidrug-resistant clinical isolates (integrator I, IMP4); read-out: Antibacterial activity MIC, Pseudomonas aeruginosa (4 strains)
Description: as §7, §2, §3, §4, §8

[9] = system: Acinetobacter baumannii (4 strains); assay: MIC, broth microdilution, iron-deficient MH medium; type: cell-based; conditions: Acinetobacter baumannii; iron-deficient MH medium (16 mg/L 2,2'-bipyridine); multidrug-resistant clinical isolates (integron I, OXA23); read-out: Antibacterial activity MIC, Acinetobacter baumannii (4 strains)
Description: as §7, §2, §3, §4, §8

[10] = system: Klebsiella pneumoniae (4 strains); assay: MIC, broth microdilution, iron-deficient MH medium; type: cell-based; conditions: for MIC: Klebsiella pneumoniae, iron-deficient MH medium (16 mg/L 2,2'-bipyridine), multi-drug resistant clinical isolates (KPC2), read-out: Antibacterial activity MIC, Klebsiella pneumoniae (4 strains); for times more effective than BAL30072 in inhibitory activity against Klebsiella pneumonia: iron-deficient MH medium, from MIC of Table 3
Description: as §7, §2, §3, §4, §8

[11] = system: Escherichia coli ATCC 35218; assay: MIC, broth microdilution, iron-deficient MH medium; type: cell-based; conditions: Escherichia coli, ATCC35218; iron-deficient MH medium (16 mg/L 2,2'-bipyridine); quality control strain; read-out: Antibacterial activity MIC, Escherichia coli ATCC 35218
Description: as §1, §2, §3, §4, §8

Row | Structure (SMILES) | MIC [1] | MIC [2] | MIC [3] | MIC [4] | ED50 ([5]; Klebsiella pneumoniae, read-out: ED50 Subcutaneous injection) | ED50 Subcutaneous injection [5] | MIC [6] | MIC [7] | MIC [8] | MIC [9] | MIC [10] | times more effective than BAL30072 in inhibitory activity against Klebsiella pneumonia [10] | MIC [11] | times more effective than BAL30072 in inhibitory activity against Escherichia coli ([2]; from MIC of Table 2) | times more effective than BAL30072 in inhibitory activity against Klebsiella pneumoniae ([6]; from MIC of Table 2)
1 | C[C@@H](O)[C@H]1C(=O)N2C(C(=O)O)=C(S[C@@H]3CN[C@H](C(=O)N(C)C)C3)[C@H](C)[C@H]12 [meropenem, reference compound] | 0.125 µg/mL (≈ 0.326 µM) | 0.25 to 32 µg/mL (≈ 0.652 to 83.4 µM) | 32 to 64 µg/mL (≈ 83.4 to 167 µM) | 64 µg/mL (≈ 167 µM) | > 100 mg/kg | >100 mg/kg | 32 to 64 µg/mL (≈ 83.4 to 167 µM) | – | – | – | – | – | – | – | –
2 | CC(C)C(O/N=C(\C(=O)N[C@@H]1C(=O)N(OS(=O)(=O)O)C1(C)C)c1nc(N)sc1Cl)c1cc(=O)c(O)cn1O (stereo partly drawn) [Compound 24, (3S)-3-((Z)-2-(2-amino-5-chlorothiazol-4-yl)-2-((1-(1,5-dihydroxy-4-oxo-1,4-dihydropyridin-2-yl)-2-methylpropoxy)imine)acetamido)-2,2-dimethyl-4-oxoazetidine-1-hydrogen sulfate] | – | – | – | – | – | – | – | 0.06 to 0.25 µg/mL | 0.25 to 2 µg/mL | 1 to 2 µg/mL | 0.125 to 0.5 µg/mL | 128-512 times | < 0.03 µg/mL | – | –
3 | CSCC(O/N=C(\C(=O)N[C@@H]1C(=O)N(OS(=O)(=O)O)C1(C)C)c1csc(N)n1)c1cc(=O)c(O)cn1O (stereo partly drawn) [Compound 16, (3S)-3-((Z)-2-(2-aminothiazol-4-yl)-2-((1-(1,5-dihydroxy-4-oxo-1,4-dihydropyridin-2-yl)-2-(methylthio)ethoxy)imine)acetamido)-2,2-dimethyl-4-oxoazetidine-1-hydrogen sulfate] | < 0.03 µg/mL | 0.125 to 0.5 µg/mL | 0.25 to 2 µg/mL | 1 to 2 µg/mL | – | – | 0.5 to 1 µg/mL | 0.06 to 0.25 µg/mL | 0.125 to 1 µg/mL | 0.5 to 1 µg/mL | 0.5 to 1 µg/mL | 64-128 times | < 0.03 µg/mL | 2-8 times | 64-128 times
4 | CC(C)[C@H](O/N=C(\C(=O)N[C@@H]1C(=O)N(OS(=O)(=O)O)C1(C)C)c1nc(N)sc1Cl)c1cc(=O)c(O)cn1O [Compound 29, (3S)-3-((Z)-2-(2-amino-5-chlorothiazol-4-yl)-2-(((S)-1-(1,5-dihydroxy-4-oxo-1,4-dihydropyridin-2-yl)-2-methylpropoxy)imine)acetamido)-2,2-dimethyl-4-oxoazetidine-1-hydrogen sulfate] | < 0.03 µg/mL | 1 to 2 µg/mL | 0.25 to 2 µg/mL | 1 to 2 µg/mL | – | – | 1 to 4 µg/mL | 0.125 to 1 µg/mL | 0.06 to 1 µg/mL | 0.5 to 1 µg/mL | 0.25 to 0.5 µg/mL | 128-256 times | < 0.03 µg/mL | – | –

From US10501454B2, “Monocyclic β-lactam-siderophore conjugate, and preparation method and use thereof” (Shanghai Institute of Materia Medica, Chinese Academy of …, priority 2016, dated 2019)
